Data: patent US5849802A, “Fungicidal spirocyclic amines” (American Cyanamid Company, priority 1996, dated 1998)

Assays:
[1] = tested on: Venturia inaequalis; assay: In vivo fungicidal activity: Apple Scab (AS); settings: 200 ppm, sprayed before inoculation; further: ranges in brackets are in %
[2] = tested on: Plasmopara viticola; assay: In vivo fungicidal activity: Grape Downy Mildew (GDM); settings: 200 ppm, sprayed before inoculation; further: ranges in brackets are in %
[3] = tested on: Botrytis cinerea; assay: In vivo fungicidal activity: Pepper Botrytis (PB); settings: 200 ppm, sprayed before inoculation; further: ranges in brackets are in %
[4] = tested on: Pyricularia grisea f. sp. oryzae; format: in vivo; settings: 200 ppm, sprayed before inoculation, Rice Blast
[5] = tested on: Cercospora beticola; assay: In vivo fungicidal activity: Sugar Beet Cercospora (SBC); settings: 200 ppm, sprayed before inoculation; further: ranges in brackets are in %
[6] = tested on: Alternaria solani; assay: In vivo fungicidal activity: Tomato Early Blight (TEB); settings: 200 ppm, sprayed before inoculation; further: ranges in brackets are in %
[7] = tested on: Erysiphe graminis f. sp. tritici; assay: In vivo fungicidal activity: Wheat Powdery Mildew (WPM); settings: 200 ppm, sprayed before inoculation; further: ranges in brackets are in %
[8] = tested on: Septoria nodorum; assay: In vivo fungicidal activity: Wheat Septoria nodorum Blotch (WSN); settings: 200 ppm, sprayed before inoculation
Method: Test compounds are dissolved in acetone and diluted with deionized water (95 parts water to 5 parts acetone) containing 0.05% TWEEN 20®, a polyoxyethylene sorbitan monolaurate surfactant manufactured by Atlas Chemical Industries, to give a concentration of 200 ppm.
The plants are sprayed with the test solutions, dried and inoculated with fungi later the same day. When disease symptom development is optimal, the plants are rated for disease control according to the rating scale shown below. Each test contains inoculated treated plants, inoculated untreated plants and a inoculated plants treated with reference fungicides.

[9] = tested on: Fusarium oxysporium f. sp. cucumerinum; assay: In vitro fungicidal activity: growth inhibition (FUS OXC); format: cell-based; settings: 25 ppm, 3-7 days at 22° C., nutrient broth; further: ranges in brackets are in %
Method: (§1) Test compounds are dissolved in acetone then diluted with deionize water (9 parts water: 1 part acetone), and dispersed into cell well plates containing a suspension of ground fungal mycelium in a nutrient broth resulting in a final concentration of 25 ppm of the test compound. Assay plates are incubated for 3-7 days at 22° C. Growth inhibition is measured visually and is rated using the following scale: […]

[10] = tested on: Pseudocercosporella herpotrichoides; assay: In vitro fungicidal activity: growth inhibition (PSDC HE); format: cell-based; settings: 25 ppm, 3-7 days at 22° C., nutrient broth; further: ranges in brackets are in %
Method: as §1

[11] = tested on: Pythium ultimum; assay: In vitro fungicidal activity: growth inhibition (PYTH UL); format: cell-based; settings: 25 ppm, 3-7 days at 22° C., nutrient broth; further: ranges in brackets are in %
Method: as §1

[12] = tested on: Rhizoctonia solani; assay: In vitro fungicidal activity: growth inhibition (RHIZ SO); format: cell-based; settings: 25 ppm, 3-7 days at 22° C., nutrient broth; further: ranges in brackets are in %
Method: as §1

SMILES: CC(C)(C)C1CCC2(CCC(NC3CCCC3)C2)CC1 (stereo not drawn) [Example 10]
- disease control rating, AS [1]: 8 (96-99)
- disease control rating, GDM [2]: 5 (60-74)
- disease control rating, PB [3]: 6 (75-89)
- disease control rating, RB [4]: 0 (0)
- disease control rating, SBC [5]: 6 (75-89)
- disease control rating, TEB [6]: 2 (15-29)
- disease control rating, WPM [7]: 6 (75-89)
- disease control rating, WSN [8]: 7 (90-95)
- growth inhibition rating, FUS OXC [9]: 0 (0)
- growth inhibition rating, PSDC HE [10]: 9 (100)
- growth inhibition rating, PYTH UL [11]: 9 (100)
- growth inhibition rating, RHIZ SO [12]: 9 (100)

SMILES: CC(C)(C)C1CCC2(CCC(NC3CCCCCC3)C2)CC1 (stereo not drawn) [Example 11]
- disease control rating, AS [1]: 7 (90-95)
- disease control rating, GDM [2]: 6 (75-89)
- disease control rating, PB [3]: 8 (96-99)
- disease control rating, RB [4]: 0 (0)
- disease control rating, SBC [5]: 5 (60-74)
- disease control rating, TEB [6]: 5 (60-74)
- disease control rating, WPM [7]: 6 (75-89)
- disease control rating, WSN [8]: 6 (75-89)
- growth inhibition rating, FUS OXC [9]: 0 (0)
- growth inhibition rating, PSDC HE [10]: 9 (100)
- growth inhibition rating, PYTH UL [11]: 0 (0)
- growth inhibition rating, RHIZ SO [12]: 9 (100)

SMILES: CN(C1CCCCC1)C1CCC2(CCC(C(C)(C)C)CC2)C1 (stereo not drawn) [Example 9]
- disease control rating, AS [1]: 8 (96-99)
- disease control rating, GDM [2]: 2 (15-29)
- disease control rating, PB [3]: 8 (96-99)
- disease control rating, RB [4]: 0 (0)
- disease control rating, SBC [5]: 4 (45-59)
- disease control rating, TEB [6]: 0 (0)
- disease control rating, WPM [7]: 7 (90-95)
- disease control rating, WSN [8]: 6 (75-89)
- growth inhibition rating, FUS OXC [9]: 0 (0)
- growth inhibition rating, PSDC HE [10]: 7 (90-99)
- growth inhibition rating, PYTH UL [11]: 7 (90-99)
- growth inhibition rating, RHIZ SO [12]: 9 (100)

SMILES: C[C@@H]1CN(C2CCC3(CCC(C(C)(C)C)CC3)C2)C[C@H](C)O1 (stereo partly drawn) [Example 4]
- disease control rating, AS [1]: 0 (0)
- disease control rating, GDM [2]: 0 (0)
- disease control rating, PB [3]: 9 (100)
- disease control rating, RB [4]: 0 (0)
- disease control rating, SBC [5]: 7 (90-95)
- disease control rating, TEB [6]: 0 (0)
- disease control rating, WPM [7]: 9 (100)
- disease control rating, WSN [8]: 7 (90-95)
- growth inhibition rating, FUS OXC [9]: 0 (0)
- growth inhibition rating, PSDC HE [10]: 0 (0)
- growth inhibition rating, PYTH UL [11]: 0 (0)
- growth inhibition rating, RHIZ SO [12]: 0 (0)

SMILES: CC1CCC(NC2CCC3(CCC(C(C)(C)C)CC3)C2)CC1 (stereo not drawn) [Example 7]
- disease control rating, AS [1]: 4 (45-59)
- disease control rating, GDM [2]: 3 (30-44)
- disease control rating, PB [3]: 7 (90-95)
- disease control rating, RB [4]: 0 (0)
- disease control rating, SBC [5]: 8 (96-99)
- disease control rating, TEB [6]: 4 (45-59)
- disease control rating, WPM [7]: 7 (90-95)
- disease control rating, WSN [8]: 7 (90-95)
- growth inhibition rating, FUS OXC [9]: 0 (0)
- growth inhibition rating, PSDC HE [10]: 7 (90-99)
- growth inhibition rating, PYTH UL [11]: 7 (90-99)
- growth inhibition rating, RHIZ SO [12]: 9 (100)

SMILES: CCCCC(CC)NC1CCC2(CCC(C(C)(C)C)CC2)C1 (stereo not drawn) [Example 2]
- disease control rating, AS [1]: 8 (96-99)
- disease control rating, GDM [2]: 8 (96-99)
- disease control rating, PB [3]: 9 (100)
- disease control rating, RB [4]: 0 (0)
- disease control rating, SBC [5]: 4 (45-59)
- disease control rating, TEB [6]: 0 (0)
- disease control rating, WPM [7]: 8 (96-99)
- disease control rating, WSN [8]: 0 (0)
- growth inhibition rating, FUS OXC [9]: 0 (0)
- growth inhibition rating, PSDC HE [10]: 9 (100)
- growth inhibition rating, PYTH UL [11]: 9 (100)
- growth inhibition rating, RHIZ SO [12]: 7 (90-99)

SMILES: CC(C)(C)C1CCC2(CCC(NCc3ccc(Cl)cc3)C2)CC1 (stereo not drawn) [Example 12]
- disease control rating, AS [1]: 7 (90-95)
- disease control rating, GDM [2]: 0 (0)
- disease control rating, PB [3]: 7 (90-95)
- disease control rating, RB [4]: 0 (0)
- disease control rating, SBC [5]: 0 (0)
- disease control rating, TEB [6]: 0 (0)
- disease control rating, WPM [7]: 5 (60-74)
- disease control rating, WSN [8]: 0 (0)
- growth inhibition rating, FUS OXC [9]: 0 (0)
- growth inhibition rating, PSDC HE [10]: 9 (100)
- growth inhibition rating, PYTH UL [11]: 0 (0)
- growth inhibition rating, RHIZ SO [12]: 9 (100)

SMILES: CC(C)(C)C1CCC2(CCC(NC3CCCCC3)C2)CC1 (stereo not drawn) [Example 3]
- disease control rating, AS [1]: 8 (96-99)
- disease control rating, GDM [2]: 5 (60-74)
- disease control rating, PB [3]: 9 (100)
- disease control rating, RB [4]: 0 (0)
- disease control rating, SBC [5]: 6 (75-89)
- disease control rating, TEB [6]: 8 (96-99)
- disease control rating, WPM [7]: 8 (96-99)
- disease control rating, WSN [8]: 8 (96-99)
- growth inhibition rating, FUS OXC [9]: 0 (0)
- growth inhibition rating, PSDC HE [10]: 0 (0)
- growth inhibition rating, PYTH UL [11]: 1 (1-29)
- growth inhibition rating, RHIZ SO [12]: 0 (0)

SMILES: CC(C)CNC1CCC2(CCC(C(C)(C)C)CC2)C1 (stereo not drawn) [Example 8]
- disease control rating, AS [1]: 8 (96-99)
- disease control rating, GDM [2]: 0 (0)
- disease control rating, PB [3]: 6 (75-89)
- disease control rating, RB [4]: 0 (0)
- disease control rating, SBC [5]: 6 (75-89)
- disease control rating, TEB [6]: 0 (0)
- disease control rating, WPM [7]: 5 (60-74)
- disease control rating, WSN [8]: 4 (45-59)
- growth inhibition rating, FUS OXC [9]: 0 (0)
- growth inhibition rating, PSDC HE [10]: 7 (90-99)
- growth inhibition rating, PYTH UL [11]: 7 (90-99)
- growth inhibition rating, RHIZ SO [12]: 9 (100)

SMILES: CC1CCCC(NC2CCC3(CCC(C(C)(C)C)CC3)C2)C1 (stereo not drawn) [Example 6]
- disease control rating, AS [1]: 6 (75-89)
- disease control rating, GDM [2]: 5 (60-74)
- disease control rating, PB [3]: 4 (45-59)
- disease control rating, RB [4]: 7 (90-95)
- disease control rating, SBC [5]: 4 (45-59)
- disease control rating, TEB [6]: 7 (90-95)
- disease control rating, WPM [7]: 3 (30-44)
- disease control rating, WSN [8]: 7 (90-95)
- growth inhibition rating, FUS OXC [9]: 0 (0)
- growth inhibition rating, PSDC HE [10]: 7 (90-99)
- growth inhibition rating, PYTH UL [11]: 7 (90-99)
- growth inhibition rating, RHIZ SO [12]: 9 (100)

SMILES: CC1CCN(C2CCC3(CCC(C(C)(C)C)CC3)C2)CC1 (stereo not drawn) [Example 1]
- disease control rating, AS [1]: 6 (75-89)
- disease control rating, GDM [2]: 9 (100)
- disease control rating, PB [3]: 8 (96-99)
- disease control rating, RB [4]: 0 (0)
- disease control rating, SBC [5]: 6 (75-89)
- disease control rating, TEB [6]: 0 (0)
- disease control rating, WPM [7]: 7 (90-95)
- disease control rating, WSN [8]: 7 (90-95)
- growth inhibition rating, FUS OXC [9]: 0 (0)
- growth inhibition rating, PSDC HE [10]: 7 (90-99)
- growth inhibition rating, PYTH UL [11]: 7 (90-99)
- growth inhibition rating, RHIZ SO [12]: 9 (100)

SMILES: CC1CC(C)CN(C2CCC3(CCC(C(C)(C)C)CC3)C2)C1 (stereo not drawn) [Example 5]
- disease control rating, AS [1]: 6 (75-89)
- disease control rating, GDM [2]: 5 (60-74)
- disease control rating, PB [3]: 9 (100)
- disease control rating, RB [4]: 0 (0)
- disease control rating, SBC [5]: 7 (90-95)
- disease control rating, TEB [6]: 0 (0)
- disease control rating, WPM [7]: 8 (96-99)
- disease control rating, WSN [8]: 4 (45-59)
- growth inhibition rating, FUS OXC [9]: 0 (0)
- growth inhibition rating, PSDC HE [10]: 0 (0)
- growth inhibition rating, PYTH UL [11]: 0 (0)
- growth inhibition rating, RHIZ SO [12]: 0 (0)
